Test [1] is described as follows: Sensory evaluation of the compounds in water. The conditions noted are these: 2 g/L in water; 12 panelists. On the procedure:
The compounds ornithine, ornithyl-β-alanine, 1-deoxy-D-fructosyl-N-ornithine, 1-deoxy-D-fructosyl-N-ornithyl-β-alanine and 1-deoxy-2-pentulofuranos-1-yl-Ornithine (Rib-Orn) were each dissolved and diluted in water in a final concentration of 2 g/L. The solutions were then evaluated by 12 panelists, which were previously screened and selected for their sensory abilities.

The nature of test [2]: Sensory evaluation of the compounds in a chicken soup base. The note with it: for flavor impact in chicken soup base versus reference soup: ANOVA/LSD, alpha 5%; for Sensory inpact on chicken soup: chicken soup base, compounds added at 2 and 0.25 g/L, 12 panelists. Here is the method:
Chicken soups were prepared by dissolving 6 g chicken base powder (detailed recipe shown in Table 1), 1 g monosodium glutamate and 1 g of sodium chloride in 500 mL hot water. 1-Deoxy-D-fructosyl-N-ornithyl-β-alanine, N-ornithyl-β-alanine, 1-deoxy-D-fructosyl-N-ornithine or alternatively 1-deoxy-2-pentulofuranos-1-yl-Ornithine (Rib-Orn) were then added separately at 2 and 0.25 g/L final concentrations.
The sensory evaluation was carried out by 12 panelists, previously screened for their sensory abilities. The panelists assessed a maximum of 6 samples per session. They had Vittel water and crackers as mouth cleansers. In all the cases, the panelists were instructed to evaluate the samples for the following attributes: overall flavor persistency, meaty, grilled/popcorn-like, bread-like, sweet, bitter, and salty. The samples were coded with random 3-digit numbers according to a balanced presentation design, heated at approximately 65° C. and then presented in 40 ml brown plastic containers and under red light to minimize appearance bias (the serving was approximately 25 ml per sample).
The following statistical tests were used to analyze the sensory raw data: First, the Analysis of Variance (ANOVA) with two factors, products (fixed factor) and subject (random factor) was computed in order to determine if there was any difference among samples. The limit of significance (alpha risk) was set at 5%. […] The limit of significance (alpha risk) was set at 5%.

The nature of test [3]: Comparison of soup bases containing Fru-orn versus the mixture of glucose and ornithine. The conditions noted are these: 2 g/L (6.82 mmol/L), 6 panelists. On the procedure: A first soup was prepared by adding 2 g/L (6.82 mmol/L) 1-deoxy-D-fructosyl-N-ornithine in the soup base described above. A second soup was prepared by adding same molar concentration of glucose and ornithine. The solutions were then evaluated by 6 panelists following the same procedure than described above.

Test [4] in a line: Tomato soups with added compound (seasoning compositions). The conditions noted are these: 2 g/L in tomato soup. On the procedure: Tomato soups can be prepared by dissolving 6 g tomato base powder as can be obtained in the commerce in 500 mL hot water. 1-deoxy-D-fructosyl-N-ornithine or alternatively 1-Deoxy-D-fructosyl-N-ornithyl-β-alanine can be added at a concentration of 2 g/L to the soups in order to improve their taste and flavor profile.

The conditions of test [5]: cited from earlier work; for orosensation effect of subthreshold concentrations: together with L-glutamic acid and sodium and/or potassium ions, Dunkel and Hofmann 2009.

Entries after “also recorded” stand apart in the source; their conditions may differ.

With `N[C@@H](CCCNCC1(O)OCC(O)C(O)C1O)C(=O)O` (stereo partly drawn) [Fru-Orn, 1-deoxy-D-fructosyl-N-ornithine], in test [1], the “Flavour property in water (2 g/L)” value is listed as “salty”. Besides, in test [2] (0.25 g/L), the “flavor impact in chicken soup base versus reference soup” value is on record as “bread flavors were significantly perceived”. Also, in test [2] (2 g/L), the “flavor impact in chicken soup base versus reference soup” value was “grilled meat flavor and saltiness were significantly enhanced”. In addition, the “Sensory inpact on chicken soup” value in test [2] is given as “grilled/popcorn,; also recorded: bread, saltiness”. The “saltiness versus soup with same molar concentration of glucose and ornithine” value in test [3] (tasted with nose-clip) was “more salty”. For the same molecule, the “chicken flavor versus soup with same molar concentration of glucose and ornithine” value in test [3] (tasted without nose-clip) is “greater chicken flavor”. For the same molecule, in test [4], the “grilled savory flavor of tomato soup versus reference soup” value was “more pronounced grilled savory flavor” and the “perceived saltiness of tomato soup versus reference soup” value is reported as “slightly more salty”.
For the molecule `N[C@@H](CCCNCC1(O)OC[C@@H](O)[C@@H](O)[C@@H]1O)C(=O)NCCC(=O)O` (stereo partly drawn) [Fru-Orn-βala, 1-deoxy-D-fructosyl-N-ornithyl-β-alanine], the “Flavour property in water (2 g/L)” value in test [1] is listed as “sweet, bread”. Also, in test [2] (2 g/L each), the “grilled and bread attributes of chicken soup versus soup with orn-ala” value is “enhanced significantly; also recorded: increases the desired grilled meat and bread flavor note”; the “overall flavor persistency of chicken soup versus soup with orn-ala” value is “significantly different”; the “perceived bitterness of chicken soup versus soup with orn-ala” value is recorded as “significantly decreasing; also recorded: reducing overall bitterness”. Further, in test [2], the “Sensory inpact on chicken soup” value is “grilled/popcorn,; also recorded: bread, saltiness”. Moreover, in test [4], the “grilled savory flavor of tomato soup versus reference soup” value was “more pronounced grilled savory flavor” and the “perceived saltiness of tomato soup versus reference soup” value was “slightly more salty”.
Consider `Cn1cncc1C[C@H](NC(=O)CCN)C(=O)O` [L-anserine], for which the “orosensation effect of subthreshold concentrations” value (shortened to “orosensation effect”) in test [5] is “enhance the typical thick-sour orosensation and white-meaty character”.
For the molecule `NCCC(=O)N[C@@H](Cc1cnc[nH]1)C(=O)O` [L-carnosine], in test [5], the “orosensation effect” value is “enhance the typical thick-sour orosensation and white-meaty character”.
For the molecule `NCCC[C@H](N)C(=O)NCCS(=O)(=O)O` [L-ornithinyltaurine], the “bitter masking effects against potassium salts” value in test [5] (J. P. Ley 2008) is “bitter masking effects”. Besides, the taste produced entry in test [5] (Tamura et al. 1989) is given as “salty taste”.
As to `NCCC[C@H](N)C(=O)O` [Orn, L-ornithine], in test [5] (J. P. Ley 2008), the “off-taste inhibition in combination with bitter branched chain amino acids” value is reported as “off-taste inhibitor”.
With `NCCC[C@H](N)C(=O)NCCC(=O)O` [Orn-ala, N-ornithyl-β-alanine, reference compound], the “Flavour property in water (2 g/L)” value in test [1] is on record as “astringent”. For the same molecule, in test [2] (2 g/L), the “flavor impact in chicken soup base versus reference soup” value is “no statistically significant differences”. For the same molecule, the “Sensory inpact on chicken soup” value in test [2] is “none”. In addition, the “bitter masking effects against potassium salts” value in test [5] (J. P. Ley 2008) is “bitter masking effects”.
Take `N[C@@H](CCCNCC1(O)OC[C@@H](O)[C@H]1O)C(=O)O` (stereo partly shown) [Rib-Orn, 1-deoxy-2-pentulofuranos-1-yl-ornithine]: the “Flavour property in water (2 g/L)” value in test [1] was “astringent, sour, metallic and slightly sweet; also recorded: Astringent,”. Also, the “flavor impact in chicken soup base versus reference soup” value in test [2] (0.25 g/L) is “both baked bread flavor and umami taste were significantly enhanced”. Further, the “Sensory inpact on chicken soup” value in test [2] is reported as “Grilled/bread,; also recorded: umami”.
Regarding `NCCC(=O)NCC(=O)O` [β-alanylglycine], in test [5], the “orosensation effect” value is “enhance the typical thick-sour orosensation and white-meaty character”.

The record behind these values is US20190313678A1, “SUGAR-DIPEPTIDE CONJUGATES AS FLAVOR MOLECULES” (NESTEC S.A., priority 2016, published 2019).
